pKi: −log10 of the molar value. Where two headings read alike, the source gives them in different places.
Target: T1, cloned human dopamine D3 receptors (Homo sapiens, UniProt P35462)
T1 construct: expressed in transfected cells
Assay: [N-Methyl-3H]Spiroperidol binding to cloned human dopamine D3 receptors
From the text: [N-Methyl-^3H]Spiroperidol Binding to Cloned Human Dopamine D3 Receptors
This assay measures the in vitro activity of compounds on cloned human dopamine (D3) receptors and predicts the direct dopamine-blocking properties of putative neuropsychiatric agents at human dopamine D3 receptors.
The D3 gene was isolated from a human striatal cDNA library (Stratagene). The gene was sequenced and sub-cloned into the expression vector RC/RSV (Invitrogen). CHO (Chinese Hamster Ovary) cells were stably transfected with 10 μg of the D3/RSV plasmid using the DOTAP method from Boehringer Mannheim and 72 clones that were G418 resistant were isolated. Using mRNA and binding displacement data a single high expressing clone was identified. This clone was then grown in large batches for the purpose of developing a 96 well format assay.
The cells are harvested into 250 ml centrifuge tubes with 100 volumes of cold phosphate buffered saline (PBS) and spun down (1200×G for 10 min at 4° C.). The medium is removed and 100 ml PBS are added to each centrifuge tube, cells are resuspened and spun down again. The PBS is removed and the final pellet is homogenized in an appropriate volume of 10% DMSO with a polytron on ice at a medium setting.
For Kj determinations: [^3H]NMSP is made up to a concentration of 2.7 nM in buffer 2b, such that when 150 μl is added to each tube a final concentration of 0.4 nM is attained in the 1 ml assay. Samples of total CPM added are taken for each experiment to calculate the total ligand concentration.
5. S(-)-Eticlopride is obtained from Research Biochemicals International (RBI catalog number E-101). A refrigerated stock (good for up to a month) solution of S(-)-eticlopride is made at a concentration of 30 μM in buffer 2b. One hundred microliters are added to 3 wells for the determination of nonspecific binding (this yields a final concentration of 3 μM in the 1 ml assay).
For most assays, a 100 μM stock solution of the test compound is made up in a suitable solvent (usually <0.1% acetic acid) and serially diluted with buffer 2b, such that when 100 μl of drug is combined with the total 1 ml assay, final concentrations ranging from 10^−5-10^−8 M are attained. Characteristically eight concentrations are studied for each assay; however, higher or lower concentrations may be used, depending on the potency of the drug.
The 96-Well Packard Unifilters GF/B are incubated for >1 h at 25° C. in 0.1% polyethylamine (from 3,b). The cold tissue is added last and mixed on a orbital shaker for a few seconds and is then incubated at 37° C. for 30 min in a shaking water bath. The assay is stopped by rapid filtration through Packard Unifilter plates. The filter membranes are then washed with 15 ml of ice-cold 0.05 M Tris buffer. The filters are then dried (˜15 min under a heat lamp or incubated for 15 min in a 60° C. oven) and a bottom seal is applied. Then 40 μl of Packard Microscint 20 scintillation cocktail is added and a permanent topseal (Type P) is applied and heat sealed. The plates are then shaken on an orbital shaker for 1 h and placed in the Packard Topcount and counted for at least 5 minutes for each point.
Specific binding is defined as the difference between total binding and the binding in the presence of 3 μM S-(-)-eticlopride. Total binding is approximately 10% of the total added ligand. Cheng-Prusoff determination (Kj's) are performed using Prism software using a one-site competition curve analysis where the top and the bottom of the non-linear regression are held constant at 0% and 100% percent inhibition. The percent inhibition at each drug concentration is the mean of duplicate determinations.

T1 sequence (P35462 whole entry): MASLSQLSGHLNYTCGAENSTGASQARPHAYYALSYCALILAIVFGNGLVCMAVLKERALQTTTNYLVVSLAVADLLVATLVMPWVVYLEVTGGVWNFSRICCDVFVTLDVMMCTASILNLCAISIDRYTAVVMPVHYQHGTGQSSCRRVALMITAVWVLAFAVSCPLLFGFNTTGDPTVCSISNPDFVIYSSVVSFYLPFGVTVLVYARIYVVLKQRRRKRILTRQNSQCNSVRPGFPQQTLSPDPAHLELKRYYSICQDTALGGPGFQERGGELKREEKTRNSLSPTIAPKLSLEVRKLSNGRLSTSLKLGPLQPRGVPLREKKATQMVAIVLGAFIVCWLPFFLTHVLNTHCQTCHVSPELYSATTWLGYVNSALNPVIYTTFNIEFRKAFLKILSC

Compound | pKi (Table III, read-out: d3Ki) | pKi
O=C(NCCCCN1CCC(c2noc3ccsc23)CC1)NC12CC3CC(CC(C3)C1)C2 [compound 816210] | 6.73 | 
CC(=O)c1ccc(NC(=O)NCCCCN2CCN(c3c(-c4ccccc4)sc4cc(F)ccc34)CC2)cc1 [compound 816226] | 6.74 | 
O=C(NCCCCN1CCN(c2c(-c3ccccc3)sc3cc(F)ccc23)CC1)NC1CCCCC1 [compound 816232] | 8.23 | 
O=C(NCCCCN1CCC(c2noc3ccsc23)CC1)Nc1ccc(F)c([N+](=O)[O-])c1 [compound 816557] | 7.68 | 
O=C(NCCCCN1CCC(c2noc3ccsc23)CC1)Nc1ccc(Cl)c([N+](=O)[O-])c1 [compound 816559] | 7.88 | 
O=C(NCCCCN1CCC(c2noc3ccsc23)CC1)Nc1ccc([N+](=O)[O-])cc1 [compound 816562] | 8.16 | 
CCCCOc1ccc(NC(=O)NCCCCN2CCC(c3noc4ccsc34)CC2)cc1 [compound 816564] | 7.25 | 
O=C(NCCCCN1CCC(c2noc3ccsc23)CC1)Nc1ccc(Cl)cc1Cl [compound 816566] | 7.02 | 
COc1ccc(NC(=O)NCCCCN2CCC(c3noc4ccsc34)CC2)c(OC)c1 [compound 816567] | 7.13 | 
CCOc1ccccc1NC(=O)NCCCCN1CCC(c2noc3ccsc23)CC1 [compound 816764] | 7.07 | 
O=C(NCCCCN1CCC(c2noc3ccsc23)CC1)Nc1c(F)cccc1F [compound 816766] | 7.37 | 
COc1ccc(NC(=O)NCCCCN2CCC(c3noc4ccsc34)CC2)c(OC)c1 [compound 816767] | 7.22 | 
O=C(NCCCCN1CCC(c2noc3ccsc23)CC1)Nc1ccc(Cl)cc1Cl [compound 816769] | 7.24 | 
COc1cc(Cl)c(NC(=O)NCCCCN2CCC(c3noc4ccsc34)CC2)c(OC)c1 [compound 816770] | 7.55 | 
COc1c(Cl)cccc1NC(=O)NCCCCN1CCC(c2noc3ccsc23)CC1 [compound 816771] | 7.13 | 
CCOc1ccccc1NC(=O)NCCCCN1CCC(c2noc3ccsc23)CC1 [compound 816876] | 7.33 | 
O=C(NCCCCN1CCC(c2noc3ccsc23)CC1)Nc1c(F)cccc1F [compound 816878] | 7.47 | 
COc1ccc(NC(=O)NCCCCN2CCC(c3noc4ccsc34)CC2)c(OC)c1 [compound 816879] | 7.33 | 
O=C(NCCCCN1CCC(c2noc3ccsc23)CC1)Nc1cc(C(F)(F)F)cc(C(F)(F)F)c1 [compound 816881] | 7.62 | 
COc1cc(Cl)c(NC(=O)NCCCCN2CCC(c3noc4ccsc34)CC2)c(OC)c1 [compound 816882] | 7.23 | 

Compound | pKi (Table III, read-out: d3Ki) | pKi
COc1c(Cl)cccc1NC(=O)NCCCCN1CCC(c2noc3ccsc23)CC1 [compound 816883] | 7.45 | 
O=C(NCCCCN1CCC(c2noc3ccsc23)CC1)NCc1ccc(Cl)cc1Cl [compound 816968] | 7.62 | 
CC(=O)c1ccc(NC(=O)NCCCCN2C3CCC2CC(c2noc4cc(F)ccc24)C3)cc1 (stereo not drawn) [compound 817228] |  | 6.75
O=C(NCCCCN1C2CCC1CC(c1noc3cc(F)ccc13)C2)Nc1ccccc1F (stereo not drawn) [compound 817229] |  | 6.44
O=C(NCCCCN1C2CCC1CC(c1noc3cc(F)ccc13)C2)Nc1ccc(-c2ccccc2)cc1 (stereo not drawn) [compound 817230] |  | 6.74
O=C(NCCCCN1C2CCC1CC(c1noc3cc(F)ccc13)C2)Nc1cccc(C(F)(F)F)c1 (stereo not drawn) [compound 817231] |  | 6.36
Cc1ccc(NC(=O)NCCCCN2C3CCC2CC(c2noc4cc(F)ccc24)C3)cc1 (stereo not drawn) [compound 817234] |  | 6.59
COc1ccc(NC(=O)NCCCCN2CCC(c3noc4ccsc34)CC2)c(OC)c1 [compound 818310] | 6.88 | 
O=C(NCCCCN1CCN(c2n[nH]c3ccsc23)CC1)Nc1ccc(C(F)(F)F)cc1 [compound 825154] |  | 7.45
O=C(NCCCCN1CCN(c2n[nH]c3ccsc23)CC1)Nc1ccc(OC(F)(F)F)cc1 [compound 825155] |  | 7.07
CCOc1ccc(NC(=O)NCCCCN2CCN(c3n[nH]c4ccsc34)CC2)cc1 [compound 825156] |  | 7.20
O=C(NCCCCN1CCN(c2nn(C(=O)Nc3ccccc3C(F)(F)F)c3ccsc23)CC1)Nc1ccccc1C(F)(F)F [compound 825160] |  | 6.69
O=C(NCCCCN1CCN(c2nn(C(=O)Nc3ccc(OC(F)(F)F)cc3)c3ccsc23)CC1)Nc1ccc(OC(F)(F)F)cc1 [compound 825167] |  | 6.43
CCOc1ccc(NC(=O)NCCCCN2CCN(c3nn(C(=O)Nc4ccc(OCC)cc4)c4ccsc34)CC2)cc1 [compound 825168] |  | 7.32
O=C(NCCCCN1CCN(c2cn(C(=O)Nc3ccc(F)cc3)c3ccsc23)CC1)Nc1ccc(F)cc1 [compound 825170] |  | 6.87
O=C(NCCCCN1CCN(c2nn(C(=O)Nc3ccc(F)cc3F)c3ccsc23)CC1)Nc1ccc(F)cc1F [compound 825171] |  | 6.30
O=C(NCCCCN1CCCN(c2csc3cc(F)ccc23)CC1)Nc1cc(C(F)(F)F)cc(C(F)(F)F)c1 [compound 829198] |  | 7.18
O=C(NCCCCN1CCCN(c2csc3cc(F)ccc23)CC1)Nc1cc(Cl)cc(Cl)c1 [compound 829202] |  | 7.78
COc1cc(NC(=O)NCCCCN2CCCN(c3csc4cc(F)ccc34)CC2)cc(OC)c1OC [compound 829210] |  | 8.70

Other lines, results leading:

pKi (Table III, read-out: d3Ki) | pKi | Compound
 | 7.37 | O=C(NCCCCN1CCCN(c2csc3cc(F)ccc23)CC1)Nc1ccc(Cl)c(Cl)c1 [compound 829191]
 | 8.39 | Cc1cccc(NC(=O)NCCCCN2CCCN(c3csc4cc(F)ccc34)CC2)c1 [compound 829192]
 | 8.10 | O=C(NCCCCN1CCCN(c2csc3cc(F)ccc23)CC1)Nc1cccc(Cl)c1 [compound 829193]
 | 7.68 | O=C(NCCCCN1CCCN(c2csc3cc(F)ccc23)CC1)Nc1ccc(C(F)(F)F)cc1 [compound 829195]
 | 7.96 | O=C(NCCCCN1CCCN(c2csc3cc(F)ccc23)CC1)Nc1cccc(Br)c1 [compound 829196]
 | 7.46 | O=C(NCCCCN1CCCN(c2csc3cc(F)ccc23)CC1)Nc1ccc(OC(F)(F)F)cc1 [compound 829197]
 | 7.32 | O=C(NCCCCN1CCCN(c2csc3cc(F)ccc23)CC1)Nc1ccc(Cl)c(C(F)(F)F)c1 [compound 829200]
 | 8.25 | Cc1ccc(NC(=O)NCCCCN2CCCN(c3csc4cc(F)ccc34)CC2)cc1 [compound 829203]
 | 8.30 | CSc1ccc(NC(=O)NCCCCN2CCCN(c3csc4cc(F)ccc34)CC2)cc1 [compound 829204]
 | 8.60 | CC(=O)c1cccc(NC(=O)NCCCCN2CCCN(c3csc4cc(F)ccc34)CC2)c1 [compound 829206]
 | 6.85 | CC(C)c1ccc(NC(=O)NCCCCN2CCCN(c3csc4cc(F)ccc34)CC2)cc1 [compound 829207]
 | 7.80 | O=C(NCCCCN1CCCN(c2csc3cc(F)ccc23)CC1)Nc1cc(C(F)(F)F)ccc1F [compound 829211]
 | 7.30 | O=C(NCCCCN1CCCN(c2csc3cc(F)ccc23)CC1)Nc1c(F)cccc1C(F)(F)F [compound 829212]
 | 6.74 | O=C(NCCCCN1CCCN(c2csc3cc(F)ccc23)CC1)Nc1ccc(F)c(C(F)(F)F)c1 [compound 829213]
 | 7.85 | O=C(NCCCCN1CCCN(c2csc3cc(F)ccc23)CC1)Nc1ccc(Cl)cc1 [compound 829214]
 | 8.18 | O=C(NCCCCN1CCCN(c2csc3cc(F)ccc23)CC1)Nc1ccc(F)cc1 [compound 829215]
 | 9.75 | O=C(NCCCCN1CCCN(c2csc3cc(F)ccc23)CC1)Nc1ccccc1F [compound 829216]
 | 8.45 | O=C(NCCCCN1CCCN(c2csc3cc(F)ccc23)CC1)Nc1cccc(F)c1 [compound 829217]
 | 9.78 | O=C(NCCCCN1CCCN(c2csc3cc(F)ccc23)CC1)Nc1cccc(C(F)(F)F)c1 [compound 829218]
 | 10.03 | COc1ccc(NC(=O)NCCCCN2CCCN(c3csc4cc(F)ccc34)CC2)cc1 [compound 829219]
 | 7.74 | O=C(NCCCCN1CCCN(c2csc3cc(F)ccc23)CC1)Nc1ccc(Br)cc1 [compound 829220]
